In patent US20110144159A1, “ETHER BENZYLIDENE PIPERIDINE ARYL CARBOXAMIDE COMPOUNDS USEFUL AS FAAH INHIBITORS” (Pfizer Inc, priority 2008, published 2011):

Biological target: T1, Human FAAH (Homo sapiens, UniProt O00519)
T1 construct: made in house
T1 sequence (O00519 32-579 limits assumed): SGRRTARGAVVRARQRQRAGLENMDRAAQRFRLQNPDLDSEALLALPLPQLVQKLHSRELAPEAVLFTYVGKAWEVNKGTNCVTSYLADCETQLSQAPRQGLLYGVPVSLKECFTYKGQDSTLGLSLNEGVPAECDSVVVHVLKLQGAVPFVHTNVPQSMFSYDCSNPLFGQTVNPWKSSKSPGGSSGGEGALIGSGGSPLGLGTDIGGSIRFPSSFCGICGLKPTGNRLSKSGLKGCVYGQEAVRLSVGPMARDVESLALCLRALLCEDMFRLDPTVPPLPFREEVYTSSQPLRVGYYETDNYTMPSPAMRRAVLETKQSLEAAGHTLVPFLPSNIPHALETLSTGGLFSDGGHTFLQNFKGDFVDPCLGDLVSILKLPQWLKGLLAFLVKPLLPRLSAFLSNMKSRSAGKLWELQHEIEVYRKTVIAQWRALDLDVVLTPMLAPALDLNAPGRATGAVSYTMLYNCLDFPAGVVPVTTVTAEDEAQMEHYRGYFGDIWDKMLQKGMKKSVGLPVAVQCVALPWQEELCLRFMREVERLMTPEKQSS
Experiment: FAAH assay (glutamate dehydrogenase-coupled, oleamide substrate, absorbance at 340 nm)
Type: biochemical
Conditions: for hFAAH KInact/K: irreversible inhibition potency; for kinact/KI: further compounds, read-out: hFAAH_Kinact/Ki—StL
Method in brief: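 Human FAAH (1-4 nM) with 50 μM oleamide, coupled to glutamate dehydrogenase/NADH, pH 7.4, 7.5% DMSO and EtOH, 30° C; A340 read every 30 s for 90 min. Irreversible inhibition fitted for kobs per concentration, then Ki and kinact from kobs vs. [I].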

O=C(Nc1cccnn1)N1CCC(=Cc2cccc(OCCc3ccccc3)c2)CC1 [Example 75, 4-[3-(2-phenylethoxy)benzylidene]-N-pyridazin-3-ylpiperidine-1-carboxamide]
hFAAH KInact/K: 36139 M⁻¹ s⁻¹

O=C(Nc1cccnn1)N1CCC(=Cc2cccc(OCC3CCOCC3)c2)CC1 [Example 76, N-pyridazin-3-yl-4-[3-(tetrahydro-2H-pyran-4-ylmethoxy)benzylidene]piperidine-1-carboxamide]
hFAAH KInact/K: 2548 M⁻¹ s⁻¹

COc1ccc(CCOc2cccc(C=C3CCN(C(=O)Nc4cccnn4)CC3)c2)cc1 [Example 77, 4-{3-[2-(4-methoxyphenyl)ethoxy]benzylidene}-N-pyridazin-3-ylpiperidine-1-carboxamide]
hFAAH KInact/K: 207 M⁻¹ s⁻¹

O=C(Nc1cccnn1)N1CCC(=Cc2cccc(OCCc3ccsc3)c2)CC1 [Example 78, N-pyridazin-3-yl-4-{3-[2-(3-thienyl)ethoxy]benzylidene}piperidine-1-carboxamide]
hFAAH KInact/K: 35803 M⁻¹ s⁻¹

O=C(Nc1cccnn1)N1CCC(=Cc2cccc(OCCN3CCCCCC3)c2)CC1 [Example 80, 4-[3-(2-azepan-1-ylethoxy)benzylidene]-N-pyridazin-3-ylpiperidine-1-carboxamide]
hFAAH KInact/K: 325 M⁻¹ s⁻¹

CC1(C)CCC(Oc2cccc(C=C3CCN(C(=O)Nc4cccnn4)CC3)c2)CC1 [Example 81, 4-{3-[(4,4-dimethylcyclohexyl)oxy]benzylidene}-N-pyridazin-3-ylpiperidine-1-carboxamide]
hFAAH KInact/K: 3744 M⁻¹ s⁻¹

O=C(Nc1cccnn1)N1CCC(=Cc2cccc(OCC3CCC(F)(F)CC3)c2)CC1 [Example 82, 4-{3-[(4,4-difluorocyclohexyl)methoxy]benzylidene}-N-pyridazin-3-ylpiperidine-1-carboxamide]
hFAAH KInact/K: 6850 M⁻¹ s⁻¹

O=C(Nc1cccnn1)N1CCC(=Cc2cccc(OCCC3CC3)c2)CC1 [Example 83, 4-[3-(2-cyclopropylethoxy)benzylidene]-N-pyridazin-3-ylpiperidine-1-carboxamide]
hFAAH KInact/K: 22138 M⁻¹ s⁻¹

O=C(Nc1cccnn1)N1CCC(=Cc2cccc(OCCc3cccnc3)c2)CC1 [Example 84, N-pyridazin-3-yl-4-[3-(2-pyridin-3-ylethoxy)benzylidene]piperidine-1-carboxamide]
hFAAH KInact/K: 10747 M⁻¹ s⁻¹

O=C(Nc1cccnn1)N1CCC(=Cc2cccc(OCC3CCCC3)c2)CC1 [Example 86, 4-[3-(cyclopentylmethoxy)benzylidene]-N-pyridazin-3-ylpiperidine-1-carboxamide]
hFAAH KInact/K: 6267 M⁻¹ s⁻¹

O=C(Nc1cccnn1)N1CCC(=Cc2cccc(OCCc3ccccn3)c2)CC1 [Example 87, N-pyridazin-3-yl-4-[3-(2-pyridin-2-ylethoxy)benzylidene]piperidine-1-carboxamide]
hFAAH KInact/K: 3485 M⁻¹ s⁻¹

O=C(Nc1cccnn1)N1CCC(=Cc2cccc(OCc3cc4ccccc4o3)c2)CC1 [Example 88, 4-[3-(1-benzofuran-2-ylmethoxy)benzylidene]-N-pyridazin-3-ylpiperidine-1-carboxamide]
hFAAH KInact/K: 629 M⁻¹ s⁻¹

O=C(Nc1cccnn1)N1CCC(=Cc2cccc(OCCc3cccc(F)c3)c2)CC1 [Example 89, 4-{3-[2-(3-fluorophenyl)ethoxy]benzylidene}-N-pyridazin-3-ylpiperidine-1-carboxamide]
hFAAH KInact/K: 25980 M⁻¹ s⁻¹

CC(Cc1ccccc1)Oc1cccc(C=C2CCN(C(=O)Nc3cccnn3)CC2)c1 (stereo not drawn) [Example 91, 4-[3-(1-methyl-2-phenylethoxy)benzylidene]-N-pyridazin-3-ylpiperidine-1-carboxamide]
hFAAH KInact/K: 7398 M⁻¹ s⁻¹

O=C(Nc1cccnn1)N1CCC(=Cc2cccc(OCCc3ccc(F)cc3)c2)CC1 [Example 92, 4-{3-[2-(4-fluorophenyl)ethoxy]benzylidene}-N-pyridazin-3-ylpiperidine-1-carboxamide]
hFAAH KInact/K: 5205 M⁻¹ s⁻¹

CC1(COc2cccc(C=C3CCN(C(=O)Nc4cccnn4)CC3)c2)CC1 [Example 93, 4-{3-[(1-methylcyclopropyl)methoxy]benzylidene}-N-pyridazin-3-ylpiperidine-1-carboxamide]
hFAAH KInact/K: 2090 M⁻¹ s⁻¹

O=C(Nc1cccnn1)N1CCC(=Cc2cccc(OCCCc3cnoc3)c2)CC1 [Example 94, 4-[3-(3-isoxazol-4-ylpropoxy)benzylidene]-N-pyridazin-3-ylpiperidine-1-carboxamide]
hFAAH KInact/K: 27713 M⁻¹ s⁻¹

CC(C)(F)CCOc1cccc(C=C2CCN(C(=O)Nc3cccnn3)CC2)c1 [Example 95, 4-[3-(3-fluoro-3-methylbutoxy)benzylidene]-N-pyridazin-3-ylpiperidine-1-carboxamide]
hFAAH KInact/K: 3869 M⁻¹ s⁻¹

O=C(Nc1cccnn1)N1CCC(=Cc2cccc(OC3CCC(C(F)(F)F)CC3)c2)CC1 (stereo not drawn) [Example 97, N-pyridazin-3-yl-4-(3-{[4-(trifluoromethyl)cyclohexyl]oxy}benzylidene)piperidine-1-carboxamide]
hFAAH KInact/K: 3238 M⁻¹ s⁻¹

CCC(COC)Oc1cccc(C=C2CCN(C(=O)Nc3cccnn3)CC2)c1 (stereo not drawn) [Example 98, 4-{3-[1-(methoxymethyl)propoxy]benzylidene}-N-pyridazin-3-ylpiperidine-1-carboxamide]
hFAAH KInact/K: 276 M⁻¹ s⁻¹

CC(COc1cccc(C=C2CCN(C(=O)Nc3cccnn3)CC2)c1)CC(F)(F)F (stereo not drawn) [Example 99, N-pyridazin-3-yl-4-[3-(4,4,4-trifluoro-2-methylbutoxy)benzylidene]piperidine-1-carboxamide]
hFAAH KInact/K: 10896 M⁻¹ s⁻¹

O=C(Nc1cccnn1)N1CCC(=Cc2cccc(OCC3Cc4ccccc4O3)c2)CC1 (stereo not drawn) [Example 100, 4-[3-(2,3-dihydro-1-benzofuran-2-ylmethoxy)benzylidene]-N-pyridazin-3-ylpiperidine-1-carboxamide]
hFAAH KInact/K: 2505 M⁻¹ s⁻¹

CC1CCC(COc2cccc(C=C3CCN(C(=O)Nc4cccnn4)CC3)c2)CC1 (stereo not drawn) [Example 101, 4-{3-[(4-methylcyclohexyl)methoxy]benzylidene}-N-pyridazin-3-ylpiperidine-1-carboxamide]
hFAAH KInact/K: 3281 M⁻¹ s⁻¹

CC1CN(CCOc2cccc(C=C3CCN(C(=O)Nc4cccnn4)CC3)c2)CC(C)O1 (stereo not drawn) [Example 102, 4-{3-[2-(2,6-dimethylmorpholin-4-yl)ethoxy]benzylidene}-N-pyridazin-3-ylpiperidine-1-carboxamide]
hFAAH KInact/K: 207 M⁻¹ s⁻¹

O=C(Nc1cccnn1)N1CCC(=Cc2cccc(OCC3CCC(C(F)(F)F)CC3)c2)CC1 (stereo not drawn) [Example 103, N-pyridazin-3-yl-4-(3-{[4-(trifluoromethyl)cyclohexyl]methoxy}benzylidene)piperidine-1-carboxamide]
hFAAH KInact/K: 1537 M⁻¹ s⁻¹

O=C(Nc1cccnn1)N1CCC(=Cc2cccc(OCC3CCCCO3)c2)CC1 (stereo not drawn) [Example 104, N-pyridazin-3-yl-4-[3-(tetrahydro-2H-pyran-2-ylmethoxy)benzylidene]piperidine-1-carboxamide]
hFAAH KInact/K: 4050 M⁻¹ s⁻¹

Cc1ncsc1CCOc1cccc(C=C2CCN(C(=O)Nc3cccnn3)CC2)c1 [Example 105, 4-{3-[2-(4-methyl-1,3-thiazol-5-yl)ethoxy]benzylidene}-N-pyridazin-3-ylpiperidine-1-carboxamide]
hFAAH KInact/K: 6410 M⁻¹ s⁻¹

O=C(Nc1cccnn1)N1CCC(=Cc2cccc(OC3CCC(F)(F)CC3)c2)CC1 [Example 106, 4-{3-[(4,4-difluorocyclohexyl)oxy]benzylidene}-N-pyridazin-3-ylpiperidine-1-carboxamide]
hFAAH KInact/K: 16400 M⁻¹ s⁻¹

COc1cnc(NC(=O)N2CCC(=Cc3cccc(OCC4CCCCO4)c3)CC2)cn1 (stereo not drawn) [N-(5-methoxypyrazin-2-yl)-4-[3-(tetrahydro-2H-pyran-2-ylmethoxy)benzylidene]piperidine-1-carboxamide]
kinact/KI: 404 M⁻¹ s⁻¹

COc1ccc(NC(=O)N2CCC(=Cc3cccc(OCC4CCCCO4)c3)CC2)cn1 (stereo not drawn) [N-(6-methoxypyridin-3-yl)-4-[3-(tetrahydro-2H-pyran-2-ylmethoxy)benzylidene]piperidine-1-carboxamide]
kinact/KI: 950 M⁻¹ s⁻¹

Cc1ccc(NC(=O)N2CCC(=Cc3cccc(OCC4CCCCO4)c3)CC2)cn1 (stereo not drawn) [N-(6-methylpyridin-3-yl)-4-[3-(tetrahydro-2H-pyran-2-ylmethoxy)benzylidene]piperidine-1-carboxamide]
kinact/KI: 536 M⁻¹ s⁻¹

O=C(Nc1cccnc1)N1CCC(=Cc2cccc(OCC3CCCCO3)c2)CC1 (stereo not drawn) [N-pyridin-3-yl-4-[3-(tetrahydro-2H-pyran-2-ylmethoxy)benzylidene]piperidine-1-carboxamide]
kinact/KI: 3130 M⁻¹ s⁻¹

N-pyridazin-3-yl-4-[3-(2-pyridin-4-ylethoxy)benzylidene]piperidine-1-carboxamide [Example 79]
hFAAH KInact/K: 3834 M⁻¹ s⁻¹
